pIC50: −log10 of the molar value.
Legend:
Adenosine receptor A1 = biological target: T1, Adenosine receptor A1 (Rattus norvegicus, UniProt P25099); experiment: Antagonism of adenosine A1 receptor assessed from the ability to inhibit binding of [3H]cyclohexyladenosine to rat cerebral cortical membranes; assay type: cell membranes, Membrane
T1 sequence (P25099 whole entry): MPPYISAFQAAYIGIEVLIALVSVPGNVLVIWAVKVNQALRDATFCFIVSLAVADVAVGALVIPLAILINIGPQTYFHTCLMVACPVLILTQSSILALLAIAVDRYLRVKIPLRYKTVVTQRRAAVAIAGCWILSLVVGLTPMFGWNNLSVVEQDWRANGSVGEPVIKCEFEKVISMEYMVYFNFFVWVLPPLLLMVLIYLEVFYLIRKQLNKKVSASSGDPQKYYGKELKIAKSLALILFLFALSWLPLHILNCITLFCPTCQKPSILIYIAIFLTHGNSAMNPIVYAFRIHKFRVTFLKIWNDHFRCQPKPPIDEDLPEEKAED

Cavia porcellus = organism: Cavia porcellus; experiment: Ability to inhibit 2-chloroadenosine (15 uM)-elicited accumulations of cyclic AMP in guinea pig cerebral cortical slices

pIC50 (Adenosine receptor A1)	pIC50 (Cavia porcellus)	SMILES
5.82	5.09	CCCn1c(=O)c2nc[nH]c2n(CCC)c1=O
5.15	4.46	O=c1c2[nH]cnc2n(Cc2ccccc2)c(=O)n1Cc1ccccc1
3.92	< 3.60	CCCCCN1C(=O)C(C)C(=O)N2N=CSC12 (configuration not stated)
3.92	3.82	CCC1C(=O)N2C=CSC2N(CC)C1=O (configuration not stated)
4.24	< 3.70	CCN1C(=O)C(Cc2ccccc2)C(=O)N2N=CSC12 (configuration not stated)
4.39	4.82	CCC1C(=O)N(CC(C)C)C2Sc3ccccc3N2C1=O (configuration not stated)
3.80	3.70	O=C1C(Cc2ccccc2)C(=O)N(CC2CC2)C2SC=CN12 (configuration not stated)
4.57	4.52	CCC1C(=O)N2C=Cc3ccccc3C2N(CC)C1=O (configuration not stated)
4.02	3.60	CCC1C(=O)N2C=CSC2N(Cc2cc(OC)cc(OC)c2)C1=O (configuration not stated)
3.96	< 3.60	CCN1C(=O)CC(=O)N2N=CSC12 (configuration not stated)
3.54	< 3.60	CCC1C(=O)SC2N(C)C=CN2C1=O (configuration not stated)
4.22	< 3.60	CCN1C(=O)C(C)C(=O)N2N=CSC12 (configuration not stated)
3.80	3.82	CCC1C(=O)N2C=CSC2N(Cc2ccccc2)C1=O (configuration not stated)
3.30	< 3.60	CCC1C(=O)N(CC)C2SC(C)=NN2C1=O (configuration not stated)
4.27	3.60	CCCC1C(=O)N2C=CSC2N(CCC)C1=O (configuration not stated)
4.52	4.70	CCCC1C(=O)N(CC(C)C)C2Sc3ccccc3N2C1=O (configuration not stated)
4.35	< 3.60	CCN1C(=O)C(Cc2ccc(Cl)cc2)C(=O)N2N=CSC12 (configuration not stated)
4.14	< 3.60	CCC1C(=O)N(CC)C2SC=NN2C1=O (configuration not stated)
4.10	3.60	CCC1C(=O)N(CC)C2SC(c3ccccc3)=NN2C1=O (configuration not stated)
4.00	3.92	CCC1C(=O)N2C=CSC2N(CC2CC2)C1=O (configuration not stated)
< 3.60	< 3.60	CCCC1C(=O)N(C)C2N(C)C=NN2C1=O (configuration not stated)
5.19	4.92	CCn1c(=O)c2nc[nH]c2n(CC)c1=O
–	5.78	Cn1c(=O)c2nc(-c3ccccc3)[nH]c2n(C)c1=O [8-PHENYL THEOPHYLLINE]
–	3.82	Cn1c(=O)c2c(ncn2C)n(C)c1=O [CAFFEINE]

SMILES	pIC50 (Adenosine receptor A1)	pIC50 (Cavia porcellus)
Cn1c(=O)c2nc[nH]c2n(C)c1=O [THEOPHYLLINE]	–	4.38
